Source: patent publication US20240383904A1, “HETEROCYCLIC COMPOUNDS” (Hoffmann-La Roche Inc., priority 2021, published 2024)

Target: T1, MAGL (Homo sapiens, UniProt Q99685)
T1 sequence (Q99685 1-303): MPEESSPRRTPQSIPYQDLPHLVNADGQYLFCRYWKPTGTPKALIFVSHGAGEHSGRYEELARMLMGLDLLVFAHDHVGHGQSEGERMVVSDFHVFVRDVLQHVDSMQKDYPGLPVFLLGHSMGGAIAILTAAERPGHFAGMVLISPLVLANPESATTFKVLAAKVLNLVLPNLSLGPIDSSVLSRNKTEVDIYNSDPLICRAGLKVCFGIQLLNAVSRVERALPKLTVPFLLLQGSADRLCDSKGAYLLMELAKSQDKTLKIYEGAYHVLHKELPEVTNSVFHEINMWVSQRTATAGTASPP
Assay: 2-AG assay: MAGL inhibitory activity by hydrolysis of 2-arachidonoylglycerol to arachidonic acid, followed by mass spectrometry
Format: biochemical
Description: Compounds of formula (I) were profiled for MAGL inhibitory activity by determining the enzymatic activity by following the hydrolysis of the natural substrate 2-arachidonoylglycerol (2-AG) resulting in arachidonic acid, which can be followed by mass spectrometry. This assay is hereinafter abbreviated “2-AG assay”.
Compounds of formula (I) were profiled for MAGL inhibitory activity by determining the enzymatic activity by following the hydrolysis of the natural substrate 2-arachidonoylglycerol (2-AG) resulting in arachidonic acid, which can be followed by mass spectrometry. This assay is hereinafter abbreviated “2-AG assay”. The 2-AG assay was carried out in 384 well polypropylene assay plates. Compound dilutions were made in 100% DMSO in a polypropylene plate in 3-fold dilution steps to give a final concentration range in the assay from 12.5 μM to […]. Compound dilutions were added to MAGL protein in assay buffer (50 mM TRIS, 1 mM EDTA, 0.01% (v/v) Tween-20, 2.5% (v/v) DMSO). After shaking, the plate was incubated for 15 min at RT. To start the reaction, 2-arachidonoylglycerol in assay buffer was added. The final concentrations in the assay was […] for MAGL protein and 8 μM 2-arachidonoylglyerol. After shaking and 30 min incubation at RT, the reaction was quenched by the addition of two assay volumes of acetonitrile containing 4 μM of d8-arachidonic acid. The amount of arachidonic acid formed was traced by an online SPE system (Agilent Rapidfire) coupled to a triple quadrupole mass spectrometer. A C18 SPE cartridge (Agilent G9205A) was used in an acetonitrile/water liquid setup. The mass spectrometer was operated in negative electrospray mode following the mass transitions 303.1→259.1 for arachidonic acid and 311.1→267.0 for d8-arachidonic acid. The activity of the compounds was calculated based on the ratio of intensities [arachidonic acid/d 8-arachidonic acid].

[1] = 15 min preincubation, 30 min reaction at RT, 8 μM 2-arachidonoylglycerol

| Structure (SMILES) | IC50 [1] [nM] | IC50 (unit nM) [nM] |
| --- | --- | --- |
| O=C1NC2(CO1)CN(C(=O)N1CC3(CCN(Cc4ccc(S(=O)(=O)C(F)(F)F)cc4)CC3)C1)C2 [Example 84, 2-[7-(4-triflylbenzyl)-2,7-diazaspiro[3.5]nonane-2-carbonyl]-7-oxa-2,5-diazaspiro[3.4]octan-6-one] | 0.99 |  |
| O=C1NC2(CCO1)CN(C(=O)N1CC3(CCN(S(=O)(=O)c4ccc(C(F)(F)F)cc4F)CC3)C1)C2 [Example 144, 2-[7-[2-fluoro-4-(trifluoromethyl)phenyl]sulfonyl-2,7-diazaspiro[3.5]nonane-2-carbonyl]-7-oxa-2,5-diazaspiro[3.5]nonan-6-one] | 2120 |  |
| O=C1COCC2(CN(C(=O)N3CC4(CC(CNC5(C(F)(F)F)CC5)C4)C3)C2)N1 [Example 89, 2-[6-[[[1-(trifluoromethyl)cyclopro-pyl]amino]methyl]-2-azaspiro[3.3]heptane-2-carbonyl]-8-oxa-2,5-diazaspiro[3.5]nonan-6-one] | 29.7 |  |
| CS(=O)(=O)c1cc(CC2CC3(C2)CN(C(=O)N2CC4(CCCC(=O)N4)C2)C3)cc(C(F)(F)F)c1 [Example 268, 2-[6-[[3-methylsulfonyl-5-(trifluoromethyl)phenyl]methyl]-2-azaspiro[3.3]heptane-2-carbonyl]-2,5-diazaspiro[3.5]nonan-6-one] | 301 |  |
| O=C1CCC2(CN(C(=O)N3CC4(CCN(Cc5ccc(S(=O)(=O)C(F)(F)F)cc5)C4)C3)C2)N1 [Example 218, 2-[7-[[4-(trifluoromethylsulfonyl)phenyl]methyl]-2,7-diazaspiro[3.4]octane-2-carbonyl]-2,5-diazaspiro[3.4]octan-6-one] | 87.3 |  |
| Cn1ncc(C(F)(F)F)c1CN1CCC2(CC1)CN(C(=O)N1CC3(CCC(=O)N3)C1)C2 [Example 325, 2-[7-[[2-methyl-4-(trifluoromethyl)pyrazol-3-yl]methyl]-2,7-diazaspiro[3.5]nonane-2-carbonyl]-2,5-diazaspiro[3.4]octan-6-one] | 3.88 |  |
| O=C1NC2(CO1)CN(C(=O)N1CC3(CC(Oc4cnc(C(F)(F)F)cn4)C3)C1)C2 [Example 70, 2-[6-[5-(trifluoromethyl)pyrazin-2-yl]oxy-2-azaspiro[3.3]heptane-2-carbonyl]-7-oxa-2,5-diazaspiro[3.4]octan-6-one] | 3.68 |  |
| O=C1NC2(CO1)CN(C(=O)N1CC3(CC(Cc4cnc(C(F)(F)F)nc4)C3)C1)C2 [Example 32, 2-[6-[[2-(trifluoromethyl)pyrimi-din-5-y1]methyl]-2-azaspiro[3.3]heptane-2-carbonyl]-7-oxa-2,5-diazaspiro[3.4]octan-6-one] | 0.67 |  |
| O=C1CCC2(CN(C(=O)N3CC4(CN(Cc5ccc[nH]c5=O)C4)C3)C2)N1 [Example 375, 2-[6-[(2-keto-1H-pyridin-3-yl)methyl]-2,6-diazaspiro[3.3]heptane-2-carbonyl]-2,5-diazaspiro[3.4]octna-6-one] | 1850 |  |
| O=C1CCC2(CN(C(=O)N3CC4(CC(Cn5nccc5C(F)(F)F)C4)C3)C2)N1 [Example 168, 2-[6-[[5-(trifluoromethyl)pyrazol-1-yl]methyl]-2-azaspiro[3.3]heptane-2-carbonyl]-2,5-diazaspiro[3.4]octan-6-one] | 2.45 |  |
| O=C1COCC2(CN(C(=O)N3CC4(CCC(Cc5ccc(OC(F)F)nc5)CC4)C3)C2)N1 [Example 133, 2-[7-[[6-(difluoromethoxy)-3-pyridyl]methyl]-2-azaspiro[3.5]nonane-2-carbonyl]-8-oxa-2,5-diazaspiro[3.5]nonan-6-one] | 13.1 |  |
| O=C1CCC2(CN(C(=O)N3CC4(CC(Oc5ccc(C(F)(F)F)nn5)C4)C3)C2)N1 [Example 75, 2-[6-[6-(trifluoromethyl)pyridazin-3-yl]oxy-2-azaspiro[3.3]heptane-2-carbonyl]-2,5-diazaspiro[3.4]octan-6-one] | 271 |  |
| O=C1CCC2(CN(C(=O)N3CC4(CC(Cc5cccc(S(=O)(=O)C(F)(F)F)c5)C4)C3)C2)N1 [Example 360, 2-[6-(3-triflylbenzyl)-2-azaspiro[3.3]heptane-2-carbonyl]-2,5-diazaspiro[3.4]octan-6-one] | 0.2 |  |
| CN(c1cnc(C(F)(F)F)cn1)C1CCC2(CC1)CN(C(=O)N1CC3(COC(=O)N3)C1)C2 [Example 96, 2-[7-[methyl-[5-(trifluoromethyl)pyrazin-2-yl]amino]-2-azaspiro[3.5]nonane-2-carbonyl]-7-oxa-2,5-diazaspiro[3.4]octan-6-one] | 1.88 |  |
| Cc1cc(C(F)(F)F)nn1CC1CC2(C1)CN(C(=O)N1CC3(CCC(=O)N3)C1)C2 [Example 326, 2-[6-[[5-methyl-3-(trifluoromethyl)pyrazol-1-yl]methyl]-2-azaspiro[3.3]heptane-2-carbonyl]-2,5-diazaspiro[3.4]octan-6-one] | 6.53 |  |
| O=C1NC2(CO1)CN(C(=O)N1CC3(CC(Cc4ccc(F)cc4C(F)(F)F)C3)C1)C2 [Example 22, 2-[6-[4-fluoro-2-(trifluoromethyl)benzyl]-2-azaspiro[3.3]heptane-2-carbonyl]-7-oxa-2,5-diazaspiro[3.4]octan-6-one] |  | < 5 |
| O=C1CCC2(CN(C(=O)N3CC4(CCC(NS(=O)(=O)c5cccc(OC(F)(F)F)c5)CC4)C3)C2)N1 [Example 116, N-[2-(6-keto-2,5-diazaspiro[3.4]octane-2-carbonyl)-2-azaspiro[3.5]nonan-7-yl]-3-(trifluoromethoxy)benzene-sulfonamide] | 1.73 |  |
| O=C1NC2(CO1)CN(C(=O)N1CC3(CC(c4cnc(C(F)(F)F)nc4)C3)C1)C2 [Example 78, 2-[6-[2-(trifluoromethyl)pyrimi-din-5-yl]-2-azaspiro[3.3]heptane-2-carbonyl]-7-oxa-2,5-diazaspiro[3.4]octan-6-one] | 2.3 |  |
| O=C1NC2(CO1)CN(C(=O)N1CC3(CC(Cc4ccc(C(F)(F)F)nc4)C3)C1)C2 [Example 14, 2-[6-[[6-(trifluoromethyl)-3-pyridyl]methyl]-2-azaspiro[3.3]heptane-2-carbonyl]-7-oxa-2,5-diazaspiro[3.4]octan-6-one] | 0.84 |  |
| O=C1COCC2(CN(C(=O)N3CC4(CC(Cc5ccc(S(=O)(=O)C(F)(F)F)cc5)C4)C3)C2)N1 [Example 296, 2-[6-[[4-(trifluoromethylsulfonyl)phenyl]methyl]-2-azaspiro[3.3]heptane-2-carbonyl]-8-oxa-2,5-diazaspiro[3.5]nonan-6-one] | 0.15 |  |
| O=C1NC2(CO1)CN(C(=O)N1CC3(CC(C(=O)NC4(C(F)(F)F)CC4)C3)C1)C2 [Example 67, 2-(6-keto-7-oxa-2,5-diazaspiro[3.4]octane-carbonyl)-N-[1-(trifluoromethyl)cyclopro-pyl]-2-azaspiro[3.3]heptane-6-carboxamide] | 88.6 |  |
| O=C1NC2(CO1)CN(C(=O)N1CC3(CC(n4cnc(C5CC5)n4)C3)C1)C2 [Example 56, 2-[6-(3-cyclopropyl-1,2,4-triazol-1-yl)-2-azaspiro[3.3]heptane-2-carbonyl]-7-oxa-2,5-diazaspiro[3.4]octan-6-one] | 12.9 |  |
| Cn1nc(CC2CC3(C2)CN(C(=O)N2CC4(CCCC(=O)N4)C2)C3)cc1C(F)(F)F [Example 275, 2-[6-[[1-methyl-5-(trifluoromethyl)pyrazol-3-yl]methyl]-2-azaspiro[3.3]heptane-2-carbonyl]-2,5-diazaspiro[3.5]nonan-6-one] | 104 |  |
